System: 677734-321-R-J1-PDC complex spheroid viability
Experiment: Anticancer human tumor 677734-321-R-J1-PDC patient-derived soft tissue sarcoma cell line growth inhibition [POLQ]
Conditions: for IC50: curve of first compound; for viability, T/C: stronger effect = lower value; active = viability on the fitted dose curve at most 10% of control; inactive = the rest
How it was run: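 Three-cell-type spheroids modelling solid tumor plus stroma served as the readout system; POL inhibitors were tested individually and in combination, concentration ranges set by clinical Cmax where known.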

[1] = second compound 0.0316 µM, first compound 0.0316 µM
[2] = second compound 0.0316 µM, first compound 0.1 µM
[3] = second compound 0.0316 µM, first compound 0.316 µM
[4] = second compound 0.0316 µM, first compound 1 µM
[5] = second compound 0.0316 µM, first compound 3.16 µM
[6] = second compound 0.0316 µM, first compound 10 µM
[7] = second compound 0.1 µM, first compound 0.0316 µM
[8] = second compound 0.1 µM, first compound 0.1 µM
[9] = second compound 0.1 µM, first compound 0.316 µM
[10] = second compound 0.1 µM, first compound 1 µM
[11] = second compound 0.1 µM, first compound 3.16 µM
[12] = second compound 0.1 µM, first compound 10 µM
[13] = second compound 0.316 µM, first compound 0.0316 µM
[14] = second compound 0.316 µM, first compound 0.1 µM
[15] = second compound 0.316 µM, first compound 0.316 µM
[16] = second compound 0.316 µM, first compound 1 µM
[17] = second compound 0.316 µM, first compound 3.16 µM
[18] = second compound 0.316 µM, first compound 10 µM
[19] = second compound 1 µM, first compound 0.0316 µM
[20] = second compound 1 µM, first compound 0.1 µM
[21] = second compound 1 µM, first compound 0.316 µM
[22] = second compound 1 µM, first compound 1 µM
[23] = second compound 1 µM, first compound 3.16 µM
[24] = second compound 1 µM, first compound 10 µM
[25] = second compound 3.16 µM, first compound 0.0316 µM
[26] = second compound 3.16 µM, first compound 0.1 µM
[27] = second compound 3.16 µM, first compound 0.316 µM
[28] = second compound 3.16 µM, first compound 1 µM
[29] = second compound 3.16 µM, first compound 3.16 µM
[30] = second compound 3.16 µM, first compound 10 µM
[31] = second compound 10 µM, first compound 0.0316 µM
[32] = second compound 10 µM, first compound 0.1 µM
[33] = second compound 10 µM, first compound 0.316 µM
[34] = second compound 10 µM, first compound 1 µM
[35] = second compound 10 µM, first compound 3.16 µM
[36] = second compound 10 µM, first compound 10 µM
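Also: spheroids exposed to compounds for one week.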
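For viability, T/C in this document: 100% = vehicle DMSO treated spheroids.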

C=CC(=O)N1CCN(c2nc(=O)n(-c3c(C)ccnc3C(C)C)c3nc(-c4c(O)cccc4F)c(F)cc23)C(C)C1 (stereo unspecified) + Nc1ccc(C#CCN(C(=O)Cc2ncc(C(F)(F)F)cc2C(F)(F)F)c2ccc(F)cc2)nn1
> 10 µM: IC50 (second compound 0.0316 µM) | IC50 (second compound 0.1 µM) | IC50 (second compound 0.316 µM) | IC50 (second compound 1 µM) | IC50 (second compound 3.16 µM)
9.87 µM: IC50 (second compound 10 µM)
inactive: viability, T/C [1] 114% | viability, T/C [2] 116% | viability, T/C [3] 101% | viability, T/C [4] 101% | viability, T/C [5] 89.2% | viability, T/C [6] 74.4% | viability, T/C [7] 107% | viability, T/C [8] 104% | viability, T/C [9] 93.7% | viability, T/C [10] 118% | viability, T/C [11] 82.7% | viability, T/C [12] 63.5% | viability, T/C [13] 94.4% | viability, T/C [14] 94.9% | viability, T/C [15] 101% | viability, T/C [16] 109% | viability, T/C [17] 86.9% | viability, T/C [18] 69.4% | viability, T/C [19] 112% | viability, T/C [20] 96.6% | viability, T/C [21] 92.4% | viability, T/C [22] 103% | viability, T/C [23] 104% | viability, T/C [24] 52.4% | viability, T/C [25] 107% | viability, T/C [26] 106% | viability, T/C [27] 111% | viability, T/C [28] 102% | viability, T/C [29] 103% | viability, T/C [30] 56.6% | viability, T/C [31] 136% | viability, T/C [32] 99.3% | viability, T/C [33] 107% | viability, T/C [34] 111% | viability, T/C [35] 85.4% | viability, T/C [36] 48.7%

CC(C)n1c(=O)n(C)c2cnc3cc(F)c(-c4ccc(OCCCN5CCCCC5)nc4)cc3c21 + Nc1ccc(C#CCN(C(=O)Cc2ncc(C(F)(F)F)cc2C(F)(F)F)c2ccc(F)cc2)nn1
inactive: viability, T/C [1] 94% | viability, T/C [2] 106% | viability, T/C [3] 103% | viability, T/C [4] 97.1% | viability, T/C [5] 87.7% | viability, T/C [6] 101% | viability, T/C [7] 99% | viability, T/C [8] 102% | viability, T/C [9] 92.2% | viability, T/C [10] 81.5% | viability, T/C [11] 72.6% | viability, T/C [12] 88.8% | viability, T/C [13] 90.2% | viability, T/C [14] 92.7% | viability, T/C [15] 98% | viability, T/C [16] 112% | viability, T/C [17] 84.9% | viability, T/C [18] 94.2% | viability, T/C [19] 109% | viability, T/C [20] 85.9% | viability, T/C [21] 93.6% | viability, T/C [22] 80.5% | viability, T/C [23] 84.9% | viability, T/C [24] 96.3% | viability, T/C [25] 112% | viability, T/C [26] 102% | viability, T/C [27] 95% | viability, T/C [28] 105% | viability, T/C [29] 83.3% | viability, T/C [30] 103% | viability, T/C [31] 85.3% | viability, T/C [32] 96.3% | viability, T/C [33] 93.3% | viability, T/C [34] 79.5% | viability, T/C [35] 93% | viability, T/C [36] 89.2%
> 10 µM: IC50 (second compound 0.0316 µM) | IC50 (second compound 0.1 µM) | IC50 (second compound 0.316 µM) | IC50 (second compound 1 µM) | IC50 (second compound 3.16 µM) | IC50 (second compound 10 µM)

CC1COCCN1c1cc(C2(S(C)(=N)=O)CC2)nc(-c2ccnc3[nH]ccc23)n1 (stereo unspecified) + Nc1ccc(C#CCN(C(=O)Cc2ncc(C(F)(F)F)cc2C(F)(F)F)c2ccc(F)cc2)nn1
0.879 µM: IC50 (second compound 0.316 µM)
inactive: viability, T/C [1] 98.3% | viability, T/C [2] 91.7% | viability, T/C [3] 75% | viability, T/C [4] 65.3% | viability, T/C [5] 23.5% | viability, T/C [7] 96.2% | viability, T/C [8] 118% | viability, T/C [9] 73.6% | viability, T/C [10] 57.1% | viability, T/C [11] 28.1% | viability, T/C [13] 109% | viability, T/C [14] 105% | viability, T/C [15] 105% | viability, T/C [16] 42.7% | viability, T/C [17] 27.1% | viability, T/C [18] 9.47% | viability, T/C [19] 118% | viability, T/C [20] 94.5% | viability, T/C [21] 72.9% | viability, T/C [22] 59.2% | viability, T/C [23] 19.1% | viability, T/C [25] 111% | viability, T/C [26] 87.1% | viability, T/C [27] 96.9% | viability, T/C [28] 43.3% | viability, T/C [29] 21.7% | viability, T/C [30] 8.55% | viability, T/C [31] 105% | viability, T/C [32] 103% | viability, T/C [33] 72.6% | viability, T/C [34] 35.2% | viability, T/C [35] 19.3%
active: viability, T/C [6] 9.33% | viability, T/C [12] 7.36% | viability, T/C [24] 8.77% | viability, T/C [36] 6.41%
1.23 µM: IC50 (second compound 0.1 µM)
0.656 µM: IC50 (second compound 10 µM)
1.03 µM: IC50 (second compound 1 µM)
0.884 µM: IC50 (second compound 3.16 µM)
1.37 µM: IC50 (second compound 0.0316 µM)

Source: PubChem BioAssay AID1963842 (Molecular Pharmacology Branch, DTP, NCI, 2024)
